Common to all, as to experiment: growth of human tumour cells (NCI), 48 h
Assay [1] relates to HOP-62 NSCLC.
The subject of assay [2] is K-562 leukemia.
Assay [3] deals with KM20L2 colon.
Assay [4] relates to M14 melanoma.
Assay [5] deals with NCI-H226 lung.
Assay [6] concerns OVCAR-5 ovarian.
The subject of assay [7] is SF-268 CNS.
For assay [8], the system named is SNB-78 CNS.
Assay [9] concerns RPMI-8226 leukemia.
Assay [10] relates to HS 578T breast.

Several values for one entry are separate records, joined by “and”; a condition that tells them apart may be missing. Identical values can stand only once.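 Exposure lasted 48 hours, with cells grown in 96-well plates and compounds tested at five concentrations. Here, GI50 denotes the concentration required for 50% inhibition of growth. TGI: total growth inhibition.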 Some results are limits rather than exact numbers.

`Cn1c(=O)nc2n(-c3ccc(Cl)cc3)c3ccc(Cl)cc3nc-2c1=O`: the TGI in [1] is 49.5 µM; in assay [2], 37.4 µM; in assay [3], 36.7 µM; in assay [4], 21.8 µM; in assay [5] it was 27.9 µM; in [6] it was 29.6 µM. Besides, the TGI in assay [7] stood at 19.7 µM; in assay [8], 29.6 µM.
`Nn1c(-c2ccccc2)nc2ccc(Br)cc2c1=O`: the TGI in [2], in [3], in assay [4], in [5], in assay [6] and in assay [9] was more than 100 µM each time. The TGI in assay [7] and in assay [8] was more than 100 µM in each case.
As for `COc1ccc(C(=O)/C(Br)=C/C(=O)O)cc1`, the GI50 in [1] was 24.1 µM; in [10], 43.1 µM and 30.9 µM; in assay [2] it was 18.8 µM; in [4] it was 52.9 µM; in assay [5] it was 39.1 µM; in [9], 7.57 µM. Besides, in [7], the GI50 was 27.3 µM. Also, the TGI is 58.3 µM and 50.3 µM in assay [1]; 649 µM and 399 µM in assay [10]; 281 µM and 352 µM in assay [2]; 185 µM in [3]; 79.3 µM and 120 µM in assay [4]; 148 µM and 145 µM in [5]. Further, the TGI in assay [6] is 131 µM and 129 µM; in assay [9], 110 µM and 78.6 µM; in [7] it was 202 µM and 225 µM.
As to `O=C1C(=O)N(C(=O)c2ccc(Cl)c(Cl)c2)c2ccccc21`, the TGI in [2], in assay [4], in assay [5], in assay [6], in assay [9] and in assay [7] was more than 100 µM each time. The same molecule displayed a TGI in assay [8] of more than 100 µM.
`CC1=C(C)C(=O)c2c(cc3ccc4ccccc4n23)C1=O`: the TGI in [2], in assay [4], in [5], in assay [6], in assay [9] and in assay [7] was more than 100 µM throughout. Besides, the TGI in [8] is more than 100 µM.
As to `O=C(c1ccccc1)C(c1ccccc1)C1(O)C(=O)Nc2c(Cl)cc(Cl)cc21` (configuration not stated), the TGI in assay [2] is 50.3 µM; in [3] it was more than 100 µM; in assay [4], 37.9 µM; in [5], 32.6 µM; in [6], 33.2 µM; in assay [9], 38.8 µM. Moreover, the TGI is 51.9 µM in assay [7] and 67.4 µM in assay [8].
As for `CN1CC[C@@H](c2c(O)cc(O)c3c(=O)cc(-c4ccccc4Cl)oc23)[C@@H](O)C1`, the GI50 in assay [1] is 0.117 µM and 0.0384 µM; in assay [10], 0.0675 µM and 0.11 µM and 0.0213 µM; in assay [2], 0.212 µM and 0.145 µM; in assay [4] it was 0.0771 µM and 0.0278 µM; in assay [5] it was 0.0522 µM; in assay [6] it was 0.0801 µM and 0.146 µM. Moreover, the GI50 is 0.0753 µM and 0.0274 µM in [9]; 0.0577 µM and 0.0288 µM in assay [7]. For the same molecule, the TGI in assay [4] is 0.225 µM and 0.226 µM and 0.104 µM; in assay [5], 0.301 µM and 0.821 µM; in assay [9], 0.233 µM and 1.36 µM; in assay [8], more than 17.6 µM.
Turning to `O=C1CC(O)C=C1Nc1ccc(Cl)cc1` (configuration not stated), the TGI was more than 100 µM in assay [1]; more than 100 µM in assay [2]; 37.8 µM in [3]; more than 100 µM in assay [4]; more than 100 µM in assay [5]; more than 100 µM in assay [6]. Further, the TGI in assay [7] and in [8] was more than 100 µM each time.
With `O=C(CNc1nncs1)NO`, the TGI in assay [1], in [2], in [3], in [4], in assay [6] and in assay [9] was more than 100 µM throughout. For the same molecule, the TGI in [7] and in [8] was more than 100 µM throughout.
`COc1cc(OC)c([C@@H]2OC(=O)C3C2C(=O)O[C@H]3c2cc(OC)c(OC)cc2OC)cc1OC` (some centres not stated): the TGI in [1], in assay [2], in assay [3], in assay [4], in assay [9] and in [8] was more than 100 µM throughout.
In the case of `CC1=C(C(=O)Nc2ccccc2C)C(c2ccccc2)C(C(=O)Nc2ccccc2C)=C(C)N1`, the TGI in assay [1], in assay [2], in assay [3], in [4], in [5] and in [6] was more than 100 µM each time. The results for the TGI in [7] and in assay [8] were more than 100 µM and 97.4 µM, respectively.
As for `Cc1cc2c(c(C#N)c1C)NC(=O)CCC2=O`, the TGI in assay [1], in assay [2], in [3], in [4], in assay [9] and in [8] was more than 100 µM in each case.
In the case of `N#CCC(=O)Nc1cccc(C(F)(F)F)c1`, the TGI in assay [1], in [3], in assay [4], in [5], in [6] and in assay [7] was more than 100 µM throughout. In assay [8], this molecule had a TGI of more than 100 µM.
For the molecule `CCc1cccc(C(C)C)c1NC(=O)C(=O)C(Cc1nc2ccccc2[nH]c1=O)C(=O)OC` (configuration not stated), the TGI in assay [1], in [2], in assay [3], in assay [4], in assay [5] and in assay [6] was more than 100 µM throughout. The TGI in assay [9] and in assay [7] was more than 100 µM throughout.
On to `CNC(P(=O)([O-])[O-])P(=O)([O-])[O-].N.N.[Pt+2]`, for which the GI50 in assay [3], in assay [4], in [5], in assay [6], in [7] and in [8] was more than 100 µM throughout. Also, the TGI in assay [3], in [4], in assay [5], in assay [6], in assay [7] and in assay [8] was more than 100 µM in each case.
Regarding `Cn1c2c(c3ccccc31)CCN(CCCCN1CCc3c(n(C)c4ccccc34)C1=O)C2`, the TGI in [1], in assay [2], in [3], in assay [4], in assay [6] and in assay [9] was more than 100 µM throughout. Moreover, the TGI in [7] and in [8] was more than 100 µM each time.

Values taken from PubChem BioAssay (NCI).
